Measurements as given in paper PMC8119889, “Computational Identification of a Putative Allosteric Binding Pocket in TMPRSS2” (Frontiers in Molecular Biosciences, 2021).

Molecular target: T1, TMPRSS2 (transmembrane serine protease 2) (Homo sapiens, UniProt O15393)
T1 construct: Recombinant human TMPRSS2 (106-492aa, 6xHisTag)
Experiment: microscale thermophoresis (His-tag RED-tris-NTA labelled protein, […])
Assay type: binding

T1 sequence (O15393 106-492): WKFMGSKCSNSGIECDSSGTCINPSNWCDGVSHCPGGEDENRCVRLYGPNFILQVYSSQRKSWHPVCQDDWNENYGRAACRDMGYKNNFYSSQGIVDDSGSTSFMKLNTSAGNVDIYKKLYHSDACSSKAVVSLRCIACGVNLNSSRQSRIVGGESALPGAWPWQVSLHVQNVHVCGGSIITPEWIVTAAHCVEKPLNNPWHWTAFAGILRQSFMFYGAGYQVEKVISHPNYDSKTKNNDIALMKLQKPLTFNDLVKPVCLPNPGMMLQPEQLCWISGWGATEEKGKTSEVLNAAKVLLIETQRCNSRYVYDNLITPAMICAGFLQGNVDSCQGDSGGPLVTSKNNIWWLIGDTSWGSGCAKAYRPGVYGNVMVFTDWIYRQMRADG

CN(Cc1cc(Br)cc(Br)c1N)C1CCCCC1 [BH, bromhexine]
Kd: 24 ± 13 µM
